From ChEMBL document CHEMBL4725375, “Total synthesis and a systematic structure-activity relationship study of WAP-8294A2” (2020)
In brackets after ≈: the same amount, converted by molar mass.

Experiments:
[1] = test system: Staphylococcus aureus; experiment: Antibacterial activity against Staphylococcus aureus ATCC 29213 by CLSI M07-A8 protocol based microdilution method; format: functional
[2] = test system: Staphylococcus aureus; experiment: Antibacterial activity against methicillin-resistant Staphylococcus aureus SA86 by CLSI M07-A8 protocol based microdilution method; format: functional

SMILES | MIC [1] [µg/mL] | MIC [2] [µg/mL]
CC(C)CCC[C@@H]1CC(=O)N[C@@H](CO)C(=O)N[C@H](CC(N)=O)C(=O)N[C@@H](CO)C(=O)NCC(=O)N(C)[C@H](Cc2ccccc2)C(=O)N[C@@H](CC(C)C)C(=O)N[C@H](CCCN)C(=O)N[C@@H](CCC(=O)O)C(=O)N[C@H](CC(N)=O)C(=O)N[C@H](Cc2c[nH]c3ccccc23)C(=O)N[C@H](CCCN)C(=O)N(C)[C@@H](C(C)C)C(=O)O1 | 1 (≈ 0.647 µM) | 1 (≈ 0.647 µM)
CC(C)CCC[C@@H]1CC(=O)N[C@@H](CO)C(=O)N[C@H](CC(N)=O)C(=O)N[C@@H](CO)C(=O)NCC(=O)N(C)[C@H](Cc2ccccc2)C(=O)N[C@@H](CC(C)C)C(=O)N[C@H](CCCN)C(=O)N[C@@H](CCC(=O)O)C(=O)N[C@H](CC(N)=O)C(=O)N[C@H](Cc2ccccc2)C(=O)N[C@H](CCCN)C(=O)N(C)[C@@H](C(C)C)C(=O)O1 | ≥ 32 | ≥ 32
CC(C)CCC[C@@H]1CC(=O)N[C@@H](CO)C(=O)N[C@H](CC(N)=O)C(=O)N[C@@H](CO)C(=O)NCC(=O)N(C)[C@H](Cc2ccccc2)C(=O)N[C@@H](CC(C)C)C(=O)N[C@H](CCCN)C(=O)N[C@@H](CCC(=O)O)C(=O)N[C@H](CC(N)=O)C(=O)N[C@H](Cc2c[nH]c3ccccc23)C(=O)N[C@H](C)C(=O)N(C)[C@@H](C(C)C)C(=O)O1 | ≥ 32 | ≥ 32
CC(C)CCC[C@@H]1CC(=O)N[C@@H](CO)C(=O)N[C@H](CC(N)=O)C(=O)N[C@@H](CO)C(=O)NCC(=O)N(C)[C@H](Cc2ccccc2)C(=O)N[C@@H](CC(C)C)C(=O)N[C@H](CCCN)C(=O)N[C@@H](CCC(=O)O)C(=O)N[C@H](CC(N)=O)C(=O)N[C@H](Cc2ccc(O)cc2)C(=O)N[C@H](CCCN)C(=O)N(C)[C@@H](C(C)C)C(=O)O1 | ≥ 32 | ≥ 32
CC(C)CCC[C@@H]1CC(=O)N[C@@H](CO)C(=O)N[C@H](CC(N)=O)C(=O)N[C@@H](CO)C(=O)NCC(=O)N(C)[C@H](Cc2ccccc2)C(=O)N[C@@H](C)C(=O)N[C@H](CCCN)C(=O)N[C@@H](CCC(=O)O)C(=O)N[C@H](CC(N)=O)C(=O)N[C@H](Cc2c[nH]c3ccccc23)C(=O)N[C@H](CCCN)C(=O)N(C)[C@@H](C(C)C)C(=O)O1 | ≥ 32 | ≥ 32
CC(C)CCC[C@@H]1CC(=O)N[C@@H](CO)C(=O)N[C@H](CC(N)=O)C(=O)N[C@@H](CO)C(=O)NCC(=O)N(C)[C@H](Cc2ccccc2)C(=O)N[C@@H](CC(C)C)C(=O)N[C@H](CCCNC(=N)N)C(=O)N[C@@H](CCC(=O)O)C(=O)N[C@H](CC(N)=O)C(=O)N[C@H](Cc2c[nH]c3ccccc23)C(=O)N[C@H](CCCN)C(=O)N(C)[C@@H](C(C)C)C(=O)O1 | 1 (≈ 0.629 µM) | 2 (≈ 1.26 µM)
CC(C)CCC[C@@H]1CC(=O)N[C@@H](CO)C(=O)N[C@H]([C@@H](O)C(N)=O)C(=O)N[C@@H](CO)C(=O)NCC(=O)N(C)[C@H](Cc2ccccc2)C(=O)N[C@@H](CC(C)C)C(=O)N[C@H](CCCN)C(=O)N[C@@H](CCC(=O)O)C(=O)N[C@H](CC(N)=O)C(=O)N[C@H](Cc2c[nH]c3ccccc23)C(=O)N[C@H](CCCN)C(=O)N(C)[C@@H](C(C)C)C(=O)O1 | 1 (≈ 0.64 µM) | 1 (≈ 0.64 µM)
CC(C)CCC[C@@H]1CC(=O)N[C@@H](CO)C(=O)N[C@H](CC(N)=O)C(=O)N[C@@H](CO)C(=O)NCC(=O)N(C)[C@H](Cc2ccccc2)C(=O)N[C@@H](CC(C)C)C(=O)N[C@H](CCCN)C(=O)N[C@@H](CCC(=O)O)C(=O)N[C@H](CC(N)=O)C(=O)N[C@H](Cc2c[nH]c3ccccc23)C(=O)N[C@H](CCCCN)C(=O)N(C)[C@@H](C(C)C)C(=O)O1 | 1 (≈ 0.641 µM) | 2 (≈ 1.28 µM)
CC(C)CCC[C@@H]1CC(=O)N[C@@H](CO)C(=O)N[C@H](C)C(=O)N[C@@H](CO)C(=O)NCC(=O)N(C)[C@H](Cc2ccccc2)C(=O)N[C@@H](CC(C)C)C(=O)N[C@H](CCCN)C(=O)N[C@@H](CCC(=O)O)C(=O)N[C@H](CC(N)=O)C(=O)N[C@H](Cc2c[nH]c3ccccc23)C(=O)N[C@H](CCCN)C(=O)N(C)[C@@H](C(C)C)C(=O)O1 | 1 (≈ 0.665 µM) | 2 (≈ 1.33 µM)
